Key:
Type in all cases: cell-based
[1] = target: T1, m4 muscarinic receptor subtype (Homo sapiens, UniProt P08173); assay: R-SAT assay, muscarinic receptor subtype m4; conditions: transfected NIH-3T3 cells, 5 days; for m4 % Eff: relative to maximum response to carbachol; for EC50: read-out: m4 pEC50 (converted)
T1 construct: expressed in transfected cells; host or cells: NIH-3T3 (ATCC CRL 1658)
T1 sequence (P08173 1-479): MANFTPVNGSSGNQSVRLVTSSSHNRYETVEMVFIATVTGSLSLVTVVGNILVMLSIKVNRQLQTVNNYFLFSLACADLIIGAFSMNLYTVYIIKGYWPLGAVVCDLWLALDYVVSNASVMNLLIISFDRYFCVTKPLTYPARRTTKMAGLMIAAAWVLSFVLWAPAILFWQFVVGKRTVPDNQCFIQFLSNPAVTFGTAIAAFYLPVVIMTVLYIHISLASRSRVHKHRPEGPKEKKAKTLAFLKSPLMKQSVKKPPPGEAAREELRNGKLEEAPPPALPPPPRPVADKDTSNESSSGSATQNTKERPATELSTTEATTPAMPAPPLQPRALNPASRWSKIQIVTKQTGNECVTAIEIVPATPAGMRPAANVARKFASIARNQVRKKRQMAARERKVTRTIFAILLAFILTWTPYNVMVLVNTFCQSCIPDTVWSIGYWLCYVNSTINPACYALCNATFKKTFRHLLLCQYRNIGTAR
Description: (§1) Transfected cells were grown in the presence of between 1 nM and 40 μM of the test compound for 5 days. On day 5, the cells were lysed using 0.5% Nonidet-P and β-galactosidase expression was quantified using the chromogenic substrate o-nitrophenyl-β-D-galactoside (ONGP).
(§2) Data were normalized relative to the maximum response of the cells to the muscarinic agonist carbachol, and the following equation was fitted to the data: • response=minimum+(maximum−minimum)/(1+(EC50/[ligand])) • Where [ligand]=ligand concentration. • % Efficacy was defined as: • (maximum−minimum)/(maximum response of cells to carbachol). • pEC50=−log (EC50). • Where data gave a bell-shaped curve, “maximum” was defined as the highest observed response.

[2] = target: T2, m1 muscarinic receptor subtype (Homo sapiens, UniProt P11229); assay: R-SAT assay, muscarinic receptor subtype m1; conditions: transfected NIH-3T3 cells, 5 days; for m1 % Eff: relative to maximum response to carbachol; for EC50: read-out: m1 pEC50 (converted)
T2 construct: expressed in transfected cells; host or cells: NIH-3T3 (ATCC CRL 1658)
T2 sequence (P11229 1-460): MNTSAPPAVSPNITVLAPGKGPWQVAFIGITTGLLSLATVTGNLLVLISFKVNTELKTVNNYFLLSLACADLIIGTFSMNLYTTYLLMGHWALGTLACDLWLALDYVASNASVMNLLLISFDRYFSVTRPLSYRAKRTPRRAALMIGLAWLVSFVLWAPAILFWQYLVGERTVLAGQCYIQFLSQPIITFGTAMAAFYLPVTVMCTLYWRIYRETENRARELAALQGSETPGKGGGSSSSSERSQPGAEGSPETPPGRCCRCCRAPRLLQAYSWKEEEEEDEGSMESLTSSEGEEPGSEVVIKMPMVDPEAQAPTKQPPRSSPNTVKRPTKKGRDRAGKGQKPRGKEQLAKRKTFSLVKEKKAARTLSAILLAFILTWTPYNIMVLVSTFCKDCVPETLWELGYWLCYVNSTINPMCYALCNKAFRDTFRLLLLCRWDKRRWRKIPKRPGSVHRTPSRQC
Description: as §1, §2

[3] = target: T3, m2 muscarinic receptor subtype (Homo sapiens, UniProt P08172); assay: R-SAT assay, muscarinic receptor subtype m2; conditions: transfected NIH-3T3 cells, 5 days, relative to maximum response to carbachol
T3 construct: expressed in transfected cells; host or cells: NIH-3T3 (ATCC CRL 1658)
T3 sequence (P08172 1-466): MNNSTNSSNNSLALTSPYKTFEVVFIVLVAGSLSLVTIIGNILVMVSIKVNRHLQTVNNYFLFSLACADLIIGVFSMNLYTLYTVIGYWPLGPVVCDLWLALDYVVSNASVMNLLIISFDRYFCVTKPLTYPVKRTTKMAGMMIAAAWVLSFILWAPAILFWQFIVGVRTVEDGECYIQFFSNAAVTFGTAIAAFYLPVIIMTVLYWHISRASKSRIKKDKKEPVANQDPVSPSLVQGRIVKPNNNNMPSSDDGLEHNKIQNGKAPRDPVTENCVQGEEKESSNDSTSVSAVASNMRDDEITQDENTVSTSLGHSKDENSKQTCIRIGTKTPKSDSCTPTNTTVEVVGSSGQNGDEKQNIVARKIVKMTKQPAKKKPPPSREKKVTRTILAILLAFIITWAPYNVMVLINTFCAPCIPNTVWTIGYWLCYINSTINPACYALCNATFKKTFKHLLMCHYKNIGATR
Description: (§3) Screening Of Test Compounds In An Assay Using Muscarinic Receptor Subtypes m1, m2, m3, m4 and m5. The m1, m2, m3, m4 and m5 muscarinic receptor subtypes were cloned substantially as described by Bonner et al., Science […] and Bonner et al., Neuron 1:403 (1988). R-SAT assays were carried out substantially as described in U.S. Pat. Nos. 5,707,798, 5,912,132, and 5,955,281, and by Braüner-Osborne & Brann, Eur. J. Pharmacol. 295:93 (1995). NIH-3T3 cells (available from the American Type Culture Collection as ATCC CRL 1658) were transfected with plasmid DNA encoding the m1, m2, m3, m4 or m5 receptors and plasmid DNA encoding β-galactosidase. Transfected cells were grown in the presence of between 1 nM and 40 μM of the test compound for 5 days. On day 5, the cells were lysed using 0.5% Nonidet-P and β-galactosidase expression was quantified using the chromogenic substrate o-nitrophenyl-β-D-galactoside (ONGP).
as §2

[4] = target: T4, m5 muscarinic receptor subtype (Homo sapiens, UniProt P08912); assay: R-SAT assay, muscarinic receptor subtype m5; conditions: transfected NIH-3T3 cells, 5 days, relative to maximum response to carbachol
T4 construct: expressed in transfected cells; host or cells: NIH-3T3 (ATCC CRL 1658)
T4 sequence (P08912 1-532): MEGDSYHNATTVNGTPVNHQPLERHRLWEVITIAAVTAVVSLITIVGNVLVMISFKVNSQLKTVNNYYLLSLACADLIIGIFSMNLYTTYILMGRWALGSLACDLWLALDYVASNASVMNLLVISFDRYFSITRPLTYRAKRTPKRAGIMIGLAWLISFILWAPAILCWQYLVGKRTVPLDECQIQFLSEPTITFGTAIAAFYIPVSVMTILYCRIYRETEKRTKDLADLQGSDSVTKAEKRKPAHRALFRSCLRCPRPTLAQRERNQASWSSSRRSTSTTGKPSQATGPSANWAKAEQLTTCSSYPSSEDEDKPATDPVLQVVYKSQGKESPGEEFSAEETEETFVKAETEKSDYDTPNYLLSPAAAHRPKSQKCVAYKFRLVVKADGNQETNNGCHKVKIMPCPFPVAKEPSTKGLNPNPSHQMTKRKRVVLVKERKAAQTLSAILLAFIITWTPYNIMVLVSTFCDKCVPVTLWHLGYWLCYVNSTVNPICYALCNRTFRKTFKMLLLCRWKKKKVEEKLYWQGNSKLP
Description: as §3, §2

[5] = target: T5, m3 muscarinic receptor subtype (Homo sapiens, UniProt P20309); assay: R-SAT assay, muscarinic receptor subtype m3; conditions: transfected NIH-3T3 cells, 5 days, relative to maximum response to carbachol
T5 construct: expressed in transfected cells; host or cells: NIH-3T3 (ATCC CRL 1658)
T5 sequence (P20309 whole entry): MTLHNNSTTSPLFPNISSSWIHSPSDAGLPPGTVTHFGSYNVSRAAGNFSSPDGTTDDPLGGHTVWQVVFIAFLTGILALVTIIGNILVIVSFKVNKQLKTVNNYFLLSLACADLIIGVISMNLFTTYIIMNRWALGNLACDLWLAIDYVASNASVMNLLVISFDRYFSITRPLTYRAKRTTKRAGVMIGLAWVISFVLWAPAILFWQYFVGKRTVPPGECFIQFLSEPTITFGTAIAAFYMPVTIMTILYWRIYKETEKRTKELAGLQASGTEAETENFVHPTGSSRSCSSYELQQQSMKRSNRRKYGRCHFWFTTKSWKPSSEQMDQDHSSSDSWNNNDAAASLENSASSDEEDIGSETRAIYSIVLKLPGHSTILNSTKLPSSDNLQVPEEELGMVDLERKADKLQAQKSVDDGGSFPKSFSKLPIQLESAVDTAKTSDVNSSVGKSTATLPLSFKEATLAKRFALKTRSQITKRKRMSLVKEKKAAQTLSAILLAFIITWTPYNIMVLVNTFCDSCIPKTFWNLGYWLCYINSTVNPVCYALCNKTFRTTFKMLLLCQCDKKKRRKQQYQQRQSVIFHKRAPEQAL
Description: as §3, §2

| Compound | m4 pEC50 [1] | m4 % Eff [1] | m1 pEC50 [2] | m1 % Eff [2] [%] | m2 % Eff [3] | m5 % Eff [4] | m3 % Eff [5] | EC50 [1] [nM] | EC50 [2] [nM] |
| --- | --- | --- | --- | --- | --- | --- | --- | --- | --- |
| 1-[3-(4-Butyl-piperidin-1-yl)-propyl]-5,6-dimethyl-1H-benzoimidazole [Example 81] | <5.5 | 77% | 6.4 | 72 |  |  |  |  |  |
| 3-[3-(4-Butyl-piperidin-1-yl)-propyl]-benzo[d]isothiazole [Example 93] | 6.4 | 58% | 7.1 | 83 | no response (No response: Efficacy <25% maximum response of carbachol. This level of activity is not considered significantly different to no response.) | no response (No response: Efficacy <25% maximum response of carbachol. This level of activity is not considered significantly different to no response.) | no response (No response: Efficacy <25% maximum response of carbachol. This level of activity is not considered significantly different to no response.) |  |  |
| CCCCC1CCN(CCCn2ccc3ccccc32)CC1 [Example 12, 1-(3-(4-n-Butylpiperidine)-1-yl-propyl)-1H-indole] |  |  | 5.9 | 59 | no response (No response: Efficacy <25% maximum response of carbachol. This level of activity is not considered significantly different to no response.) | no response (No response: Efficacy <25% maximum response of carbachol. This level of activity is not considered significantly different to no response.) | no response (No response: Efficacy <25% maximum response of carbachol. This level of activity is not considered significantly different to no response.) |  |  |
| CCCCC1CCN(CCCc2n[nH]c3ccccc23)CC1.Cl [Example 89, 3-[3-(4-Butyl-piperidine-1-yl)-propyl]1-H-indazole, HCl] | 6.8 | 53% | 7.3 | 85 | no response (No response: Efficacy <25% maximum response of carbachol. This level of activity is not considered significantly different to no response.) | no response (No response: Efficacy <25% maximum response of carbachol. This level of activity is not considered significantly different to no response.) | no response (No response: Efficacy <25% maximum response of carbachol. This level of activity is not considered significantly different to no response.) |  |  |
| CCCCC1CCN(CCCc2noc3ccccc23)CC1 [Example 24, 3-(3-(4-n-Butylpiperidine)-1-yl-propyl)-benzo[d]isoxazole] |  | 41% |  | 75 | no response (No response: Efficacy <25% maximum response of carbachol. This level of activity is not considered significantly different to no response.) | no response (No response: Efficacy <25% maximum response of carbachol. This level of activity is not considered significantly different to no response.) | no response (No response: Efficacy <25% maximum response of carbachol. This level of activity is not considered significantly different to no response.) | 501 | 126 |
| CCC=C1CCN(CCCn2ncc3ccccc32)CC1 [Example 44, 1-(3-(4-Propylidene-piperidine)-1-yl-propyl)-1H-indazole] |  |  | 6.1 | 72 |  |  |  |  |  |
| CCCCC=C1CCN(CCCn2ncc3ccccc32)CC1 [Example 43, 1-(3-(4-Pentylidene-piperidine)-1-yl-propyl)-1H-indazole] |  | 30% |  | 66 |  | no response (No response: Efficacy <25% maximum response of carbachol. This level of activity is not considered significantly different to no response.) |  | 1000 | 501 |
| CCCCC1CCN(CCCn2c(C)cc3ccccc32)CC1 [Example 77, 1-[3-(4-Butyl-piperidin-1-yl)-propyl]-2-methyl-1H-indole] | 6.3 | 96% | 7.0 | 71 |  |  |  |  |  |
| CCCCC1CCN(CCCn2nc(Cl)c3ccccc32)CC1 [Example 65, 1-[3-(4-Butylpiperidin-1-yl)-propyl]-3-chloro-1H-indazole] | <5.5 | 34% | 6.0 | 45 | no response (No response: Efficacy <25% maximum response of carbachol. This level of activity is not considered significantly different to no response.) |  |  |  |  |
| CCCCC1CCN(CCCc2nc3c([N+](=O)[O-])cccc3[nH]2)CC1 [Example 28, 4-Nitro-2-(3-(4-n-butylpiperidine)-1-yl-propyl)-1H-benzoimidazole] |  | no response (No response: Efficacy <25% maximum response of carbachol. This level of activity is not considered significantly different to no response.) | 6.5 | 38 |  | no response (No response: Efficacy <25% maximum response of carbachol. This level of activity is not considered significantly different to no response.) | no response (No response: Efficacy <25% maximum response of carbachol. This level of activity is not considered significantly different to no response.) |  |  |
| 2-[3-(4-Butylpiperidin-1-yl)-propyl]-1-methyl-1H-benzimidazole [Example 73] |  | no response (No response: Efficacy <25% maximum response of carbachol. This level of activity is not considered significantly different to no response.) | 6.2 | 37 |  |  |  |  |  |
| CC(C)CCC1CCN(CCCn2ncc3ccccc32)CC1 [Example 42, 1-(3-(4-(3-Methyl-butyl)-piperidine)-1-yl-propyl)-1H-indazole] |  |  | 7.1 | 51 |  |  |  |  |  |

From patent US20070155795A1, “MUSCARINIC AGONISTS” (ACADIA Pharmaceuticals Inc., priority 2000, published 2007)
